“Also recorded” adds a separate entry of the source.

The values below come from patent publication US5691189A (priority 1995, dated 1997).

Holding throughout (type): cell-based
For test [1], the target named is Udorn M2 (M2 protein of Influenza A virus) (Influenza A virus (A/Udorn/307/1972(H3N2)), UniProt P0DOF5).
Test [2] deals with T1, M2 (WSN) (M2 protein of Influenza A virus) (Influenza A virus (A/Wilson-Smith/1933(H1N1)), UniProt P05780).
T1 construct: amantadine-resistant, natural Asn31
The following applies: inducing media (galactose), 30° C., A600 versus time; amantadine 100 μM (FIG. 4).

The target of test [3] is M2 (WSN, N31S) (M2 protein of Influenza A virus) (Influenza A virus (A/Wilson-Smith/1933(H1N1)), UniProt P05780, N31S).

With `NC12CC3CC(CC(C3)C1)C2` [amantadine], the “growth of yeast transformants expressing the Udorn allele of M2 in the presence of amantadine” value in test [1] is recorded as “growth rescue; also recorded: grow at near wild-type rates”. In test [2], the “growth of yeast transformants expressing the amantadine-resistant WSN allele of M2 in the presence of amantadine” value was “not remediated”. Further, the “toxicity of overexpressed WSN(N31S) M2 allele in yeast on addition of amantadine to the media” value in test [3] is reported as “blocked”.
